Reference: patent US9687432B2, “Antimicrobial bispyridine amine compositions and uses” (LONZA INC., priority 2012, dated 2017)
Structures can show the parent of a compound that is named as a salt. Where two headings read alike, the source gives them in different places.

How the values were obtained:
[1] = test system: EpiDerm™ Skin Model (EPI-200); experiment: MatTek EpiDerm MTT Viability Assay (dermal irritancy); format: cell-based, human
Experimental: The MatTek EpiDerm™ MTT Viability Assay (MatTek Corp.) was utilized to determine the dermal irritancy and toxicology of octenidine distearate and octenidine dihydrochloride. The assay was performed using the EpiDerm™ Skin Model (EPI-200) as well as the Methyl thiazole tetrazolium (MT) Kit (MTT-100). The EpiDerm™ Skin Model closely parallels human skin, thus providing a useful in vitro method to assess dermal irritancy and toxicology.
Negative controls (treated with tissue culture water) were tested at 4 hours only. Following treatment, the viability of the tissues was determined using MTT uptake and reduction. The absorbance of each sample was measured at 540 nm using a reference wavelength of 690 nm. The viability was then expressed as a percent of Negative Control or Vehicle Control values. The mean percent viability for each time point was used to calculate and ET50, which represents the time at which the EpiDerm™ tissue viability was reduced 50%, compared to Negative Control or Vehicle Control tissues. The ET50 scores were converted to an irritancy classification.
MTT Reduction: 704 μl of mineral oil were heated at 70 C for 10 minutes.
Before use, tissues were incubated (37° C.±1 C, 5%±1% CO2) with assay medium (MatTek) for a one-hour equilibration. Equilibration medium was replaced with fresh medium before dosing.
The test articles were diluted as described in the sample preparation above. 100 μl of the test article dilution were mixed with 1 ml of MTT solution (1 mg/ml MTT diluted in Dulbecco's Modified Eagle's Medium (DMEM). A negative control (100 μl of tissue culture water) and a vehicle control (100 μl of mineral oil) were tested concurrently. The solutions were incubated at room temperature in the dark for 60 minutes. After incubation, the solutions were visually inspected for purple coloration, which is a positive indication that the test article reduced MTT. Since tissue viability is based on MTT reduction, direct reduction by a test article can exaggerate viability, making a test article seem less irritating that it really is.
100 μl of the test article dilutions were applied to the top of each EpiDerm™ tissue. The test articles remained in contact with the EpiDerm™ tissue for 1, 4 and 24 hours. Vehicle controls (TCH20 and mineral oil) for the test articles were tested at 4 hours. A positive control (1% Triton® X-100) was tested at 4 and 9 hours. […]
At the end of the selected exposure periods, each EpiDerm™ tissue was rinsed with phosphate buffered saline (PBS) and transferred to a 24-well plate containing 300 μl of MTT solution (1 mg/ml MTT in DMEM). […] An aliquot of the extracted MTT formazan was measured at 540 nm using a plate reader (pQuant Plate Reader, Bio-Tek Instruments, Winooski, Vt.), subtracting the absorbance at a reference wavelength of 690 nm.

[2] = test system: mixed pool of bacteria (Staphylococcus epidermis, Corynebacterium minutissimum, Staphylococcus haemolyticus, Corynebacterium xerosis, Micrococcus luteus) on …; experiment: Control of growth of skin microorganisms on pig skin; format: cell-based, skin bacteria on pig skin; details: 200 ppm in ethanol, 100 μl on pig skin, mixed bacterial pool, 35° C., 8 hour time period
Experimental: To further investigate the potential of the bispyridine amine compounds of the present invention for use as antimicrobial active ingredients in personal care products and cosmetics, the efficacy of octenidine distearate in controlling growth of skin microorganisms compared to Cosmocil® S was evaluated using different skin mimics. Testing was performed using pig skin. Although alternatives, such as VITRO-SKIN®, offered a less variable test matrix, it was decided that testing on pig skin was a better model for this application, as the pig skin allowed for actual growth of bacteria on the surface, not merely the survival of bacteria on the surface, providing more representative user skin conditions. The typical skin microorganisms Staphylococcus epidermis (ATCC 12228), Corynebacterium minutissimum (ATCC 23348), Staphylococcus haemolyticus (ATCC 29970), Corynebacterium xerosis (ATCC 373), and Micrococcus luteus (ATCC 4698), were grown in Tryptic Soy Broth (TSB) at 35-37° C. for approximately 24 hours. Each bacterial suspension was diluted 1:50 in TSB and then inoculum was prepared by mixing equal volume of each bacterial suspension. The final inoculum was plated in TSA to get an accurate count and used as a mixed pool of bacteria. […] Plates were incubated at 35-37° C. for 48 hours before the colonies were counted, and the mean values calculated.

[3] = test system: Staphylococcus haemolyticus (29970); experiment: MIC test against skin microorganisms; format: cell-based; details: 48 hrs at 36° C., two different sets
Experimental: (§1) MICs for the organisms were determined using a standard 96-well microtiter plate assay in Trypic Soy Broth (TSB). […] Bacteria were grown in Tryptic Soy Broth or Brain Heart Infusion (E. hirae) for 24 hrs and were adjusted to one million cells per milliliter in same type of broth. Following incubation (48 hrs at 36° C.), the lowest concentration of test compound inhibiting growth was recorded as the Minimum Inhibitory Concentration (MIC). The actives were serially diluted and tested at final concentrations ranging from 156.3-0.61 ppm. MIC was run for two different sets.
(§2) Bacteria were grown overnight in Tryptic Soy Brother (TSB) or Brain Heart Infusion (BHI) and were adjusted to approximately 1×10^6 colony forming units per ml (cfu/ml) and used to inoculate the wells. Final bacterial concentration in the test wells was 5×10^5 cfu/ml. For Corynebacterium spp, TSB was used for the first set and BHI for the second set. Inoculated microtiter plates were incubated at 36° C. for 48 hours.
(§3) The lowest concentration of test compound inhibiting growth was recorded as the minimum inhibitory concentration.

[4] = test system: Corynebacterium minutissimum (23348); experiment: MIC test against skin microorganisms; format: cell-based; details: 48 hrs at 36° C., TSB first set, BHI second set
Experimental: as §1, §2, §3

[5] = test system: Staphylococcus epidermidis (12228); experiment: MIC test against skin microorganisms; format: cell-based; details: 48 hrs at 36° C., two different sets
Experimental: as §1, §2, §3

[6] = test system: Corynebacterium xerosis (373); experiment: MIC test against skin microorganisms; format: cell-based; details: 48 hrs at 36° C., TSB first set, BHI second set
Experimental: as §1, §2, §3

[7] = test system: Bacillus licheniformis (14580); experiment: MIC test against skin microorganisms; format: cell-based; details: 48 hrs at 36° C., two different sets
Experimental: as §1, §2, §3

Structure (SMILES) | ET50 ([1]; human, 1.25 % w/v) | efficacy in controlling growth of skin microorganisms (CFU/cm^2 of skin, FIG. 1) [2] | MIC (ppm) [3] | MIC (ppm) [4] | MIC (ppm) [5] | MIC (ppm) [6] | MIC (ppm) [7] | ET50 [1] | ET50 (hrs) [1] | Irritancy Classification [1]
CCCCCCCCN=c1ccn(CCCCCCCCCCn2ccc(=NCCCCCCCC)cc2)cc1 [Octenidine HCl, Octenidine dihydrochloride] | 1.1 h | – | – | – | – | – | – | – | – | –
CCCCCCCCCCCCCCCCCC(=O)O.CCCCCCCCCCCCCCCCCC(=O)O.CCCCCCCCN=c1ccn(CCCCCCCCCCn2ccc(=NCCCCCCCC)cc2)cc1 [Octenidine distearate, octenidine distearate] | – | equally as effective as Cosmocil® S | 4.88-9.76 ppm | 2.44-39.06 ppm | 4.88-9.76 ppm | 39.06 ppm | 9.76-19.53 ppm | >24.0 h | greater than 24.0 hrs | Non-Irritating
